Data: PMC11480295, “Hypecotumines A-D, new isoquinoline alkaloids with potential PCSK9 inhibition activity from Hypecoum erectum L” (Natural Products and Bioprospecting, 2024)

Target: PCSK9 (Homo sapiens, UniProt Q8NBP7)
Test: SPR (Biacore T200, PCSK9 immobilized on CM5 chip)
Assay type: binding

Sequence of PCSK9 (Q8NBP7 31-152): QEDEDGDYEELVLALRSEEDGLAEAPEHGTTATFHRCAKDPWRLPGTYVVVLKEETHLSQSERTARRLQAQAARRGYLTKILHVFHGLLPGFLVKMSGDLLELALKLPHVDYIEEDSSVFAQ
Sequence of PCSK9 (Q8NBP7 153-692): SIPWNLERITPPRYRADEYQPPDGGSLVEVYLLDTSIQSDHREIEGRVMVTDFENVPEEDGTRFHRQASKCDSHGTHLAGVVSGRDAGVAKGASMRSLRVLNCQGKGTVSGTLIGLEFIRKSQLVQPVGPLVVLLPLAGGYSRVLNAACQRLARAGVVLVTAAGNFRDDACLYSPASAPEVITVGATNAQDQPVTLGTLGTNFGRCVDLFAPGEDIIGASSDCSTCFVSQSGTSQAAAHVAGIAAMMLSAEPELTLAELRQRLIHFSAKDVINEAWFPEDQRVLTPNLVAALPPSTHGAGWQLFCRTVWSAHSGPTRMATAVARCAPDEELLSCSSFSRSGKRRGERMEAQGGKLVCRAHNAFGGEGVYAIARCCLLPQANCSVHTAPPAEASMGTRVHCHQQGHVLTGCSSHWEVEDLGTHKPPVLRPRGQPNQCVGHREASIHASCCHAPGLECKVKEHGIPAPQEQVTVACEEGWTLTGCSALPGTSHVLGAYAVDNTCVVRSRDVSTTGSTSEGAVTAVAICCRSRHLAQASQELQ

Question: Which Kd does the source give for `C=C(C1=[N+](C)CCc2cc3c(cc21)OCO3)c1ccc(OC)c(O)c1C(=O)[O-]` [compound 1, Hypecotumine A] here?
Answer: Its Kd is 306 µM.

Question: `C=C(C1=[N+](C)CCc2cc(OC)c(OC)cc21)c1ccc(OC)c(O)c1C(=O)[O-]` [compound 2, Hypecotumine B] was tested. Which Kd did it give?
Answer: The Kd was 248 µM.

Question: `C=C(C1=[N+](C)CCc2cc(OC)c(OC)cc21)c1ccc2c(c1C(=O)[O-])OCO2` [compound 3, Hypecotumine C] was tested. Which Kd did it give?
Answer: The Kd was 95.1 µM.

Question: With `C=C(C1=[N+](C)CCc2cc3c(cc21)OCO3)c1ccc2c(c1C(=O)[O-])OCO2` [compound 4, Hypecotumine D] as the molecule, how does the Kd read?
Answer: The Kd was 59.9 µM.
